Source: ChEMBL document CHEMBL4765257, “Synthesis and structure-activity relationship study of pyrrolidine-oxadiazoles as anthelmintics against Haemonchus contortus” (Eur J Med Chem, 2020)
In brackets after ≈: the same amount, converted by molar mass.

Key:
Haemonchus contortus [1] = assay: Anti-helmintic activity against fourth stage of Haemonchus contortus larvae assessed as reduction in development of L4 stage incubated for 72 hrs followed by reincubation in humidified environment for 4 days; assay type: functional, organism-based
[2] = Cytotoxicity against human MCF-10A cells assessed as inhibition of cell viability at 50 uM measured after 48 hrs by DAPI staining based analysis; details: read-out: INH
Haemonchus contortus [3] = assay: Anti-helmintic activity against third-stage Haemonchus contortus larvae assessed as inhibition of xL3 motility measured after 72 hrs; assay type: functional, organism-based
MCF-10A = assay: Cytotoxicity against human MCF-10A cells assessed as inhibition of cell viability measured after 48 hrs by DAPI staining based analysis
[4] = Intrinsic clearence in human liver microsomes at 0.5 uM measured upto 60 mins in presence of NADPH measured per mg protein; assay type: ADME, Microsome; details: read-out: CLH
[5] = Half life in human liver microsomes at 0.5 uM measured upto 60 mins in presence of NADPH; assay type: ADME, Microsome
[6] = Half life in mouse liver microsomes at 0.5 uM measured upto 60 mins in presence of NADPH; assay type: ADME, Microsome
[7] = Kinetic solubility of the compound in phosphate buffer pH 6.5 incubated for 30 mins by nephelometry; assay type: physicochemical; details: read-out: Kinetic_solubility
[8] = Kinetic solubility of the compound in 0.01M HCl at pH 2.0 incubated for 30 mins by nephelometry; assay type: physicochemical; details: read-out: Kinetic_solubility
[9] = Intrinsic clearence in mouse liver microsomes at 0.5 uM measured upto 60 mins in presence of NADPH measured per mg protein; assay type: ADME, Microsome; details: read-out: CLH
[10] = Haemonchus contortus, 72 h, read-out: IC50

| SMILES | IC50 (Haemonchus contortus [1]) | cytotoxicity at 48 h, 50 µM [2] | IC50 (Haemonchus contortus [3]; [10]) | IC50 (MCF-10A) | also measured |
| --- | --- | --- | --- | --- | --- |
| O=C(Nc1ccc(Cl)cc1)N1CCC[C@H]1c1nc(-c2ccccc2Br)no1 | 22 µM | 30% | 12 µM | > 50 µM | – |
| Cc1ccc(-c2noc([C@@H]3CCCN3C(=O)Nc3ccc(Cl)cc3)n2)cc1 | 50 µM | 47% | – | > 50 µM | IC50 (Haemonchus contortus [3]): Active |
| O=C(Nc1cccc(Cl)c1)N1CCC[C@H]1c1nc(-c2ccccc2)no1 | > 100 µM | – | > 100 µM | – | – |
| O=C(Nc1ccc(Cl)cc1)N1CCC[C@H]1c1nc(-c2cccc(O)c2)no1 | 22.4 µM | 32% | 0.78 µM | > 50 µM | – |
| O=C(Nc1ccc(Cl)cc1)N1CCC[C@H]1c1nc(-c2ccc(Br)cc2)no1 | > 100 µM | 30% | – | > 50 µM | IC50 (Haemonchus contortus [3]): Active |
| COc1ccccc1NC(=O)N1CCC[C@H]1c1nc(-c2ccccc2)no1 | > 100 µM | – | > 100 µM | – | – |
| O=C(Nc1ccc(Cl)cc1)N1CCCC1c1nc(-c2ccccc2)no1 (centres undefined) | 0.31 µM | – | 3.46 µM | – | – |
| Cc1ccc(NC(=O)N2CCC[C@H]2c2nc(-c3ccccc3)no2)cc1 | > 100 µM | – | > 100 µM | – | – |
| Cc1cccc(-c2noc([C@@H]3CCCN3C(=O)Nc3ccc(Cl)cc3)n2)c1 | > 100 µM | 29% | 1.9 µM | > 50 µM | – |
| O=C(Nc1ccccc1I)N1CCC[C@H]1c1nc(-c2ccccc2)no1 | > 100 µM | – | > 100 µM | – | – |
| COc1ccc(-c2noc([C@@H]3CCCN3C(=O)Nc3ccc(Cl)cc3)n2)cc1 | > 100 µM | 13% | 50 µM | > 50 µM | – |
| O=C(Nc1ccccc1F)N1CCC[C@H]1c1nc(-c2ccccc2)no1 | > 100 µM | – | > 100 µM | – | – |
| O=C(Nc1ccc(Cl)cc1)N1CCC[C@H]1c1nc(-c2ccccc2Cl)no1 | 20 µM | 40% | 9.2 µM | > 50 µM | – |
| O=C(Nc1ccc(C(F)(F)F)cc1)N1CCC[C@H]1c1nc(-c2ccccc2)no1 | 7 µM | 33% | 9.5 µM | > 50 µM | – |
| O=C(Nc1ccc(Cl)cc1)N1CCC[C@H]1c1nc(-c2ccc(Cl)cc2)no1 | 20 µM | 22% | 1.5 µM | > 50 µM | – |
| O=C(Nc1ccc(Cl)cc1)N1CCC[C@H]1c1nc(-c2cccc(Br)c2)no1 | > 100 µM | 20% | 1.1 µM | > 50 µM | – |
| O=C(Nc1ccccc1)N1CCC[C@H]1c1nc(-c2ccccc2)no1 | > 100 µM | – | > 100 µM | – | – |
| COc1cccc(NC(=O)N2CCC[C@H]2c2nc(-c3ccccc3)no2)c1 | > 100 µM | – | > 100 µM | – | – |
| O=C(Nc1ccc(F)cc1)N1CCC[C@H]1c1nc(-c2ccccc2)no1 | > 100 µM | – | > 100 µM | – | – |
| O=C(Nc1cccc(O)c1)N1CCC[C@H]1c1nc(-c2ccccc2)no1 | > 100 µM | – | > 100 µM | – | – |
| O=C(Nc1ccc(Cl)cc1)N1CCC[C@H]1c1nc(-c2ccccc2)no1 | 21 µM | 7.5% | 5.3 µM | > 50 µM | microsomal CLint at 0.5 µM [4]: 19 µL/min/mg; half-life at 0.5 µM [5]: 93 min; half-life at 0.5 µM [6]: 20 min; solubility kinetic at 0.5 h [7]: 1.6 µg/mL (≈ 4.34 µM); solubility kinetic at 0.5 h [8]: 1.6 µg/mL (≈ 4.34 µM); microsomal CLint at 0.5 µM [9]: 89 µL/min/mg |
| N#Cc1cccc(NC(=O)N2CCC[C@H]2c2nc(-c3ccccc3)no2)c1 | > 100 µM | – | > 100 µM | – | – |
| O=C(Nc1ccc(OC(F)(F)F)cc1)N1CCC[C@H]1c1nc(-c2ccccc2)no1 | 13 µM | 18% | 4.2 µM | > 50 µM | – |
| CC(C)c1ccc(NC(=O)N2CCC[C@H]2c2nc(-c3ccccc3)no2)cc1 | > 100 µM | – | > 100 µM | – | – |
| Cc1ccccc1NC(=O)N1CCC[C@H]1c1nc(-c2ccccc2)no1 | > 100 µM | – | > 100 µM | – | – |
| O=C(Nc1ccc(Cl)cc1)N1CCC[C@H]1c1nc(-c2ccc(I)cc2)no1 | 50 µM | 23% | – | > 50 µM | IC50 (Haemonchus contortus [3]): Active |
| N#Cc1cccc(-c2noc([C@@H]3CCCN3C(=O)Nc3ccc(Cl)cc3)n2)c1 | > 100 µM | 16% | > 100 µM | > 50 µM | – |
| O=C(Nc1ccccc1O)N1CCC[C@H]1c1nc(-c2ccccc2)no1 | > 100 µM | – | > 100 µM | – | – |
| O=C(Nc1ccc(Cl)cc1)N1CCC[C@H]1c1nc(-c2ccc(F)cc2)no1 | 19 µM | 22% | 1.3 µM | > 50 µM | – |
